{"source": "patent US10987318B2", "about": "“Application of clofoctol for manufacturing pharmaceutical product for treating human neuroglioma” (INSTITUTE OF BASIC MEDICAL SCIENCES, CHINESE ACADEMY OF …, priority 2016, dated 2021)", "key": {"[1]": {"system": "glioma stem cells (U87MG SLC, U251 SLC, GSC2, GSC5)", "assay": "Detection of cell viability by MTS assay", "assay_type": "cell-based, human", "source_text": "“MTS assay”: a colorimetric method for determining the number of viable cells in proliferation assays and cytotoxicity assays. MTS is a novel tetrazolium compound. PMS is an electron coupling reagent with enhanced chemical stability, which forms a stable solution when mixed with MTS. MTS can be reduced by cellular organisms to generate a colored formazan product that is soluble in culture media. This conversion is thought to be carried out by NAD(P)H-dependent dehydrogenase enzymes in metabolically active cells. The amount of the formazan product, which is quantified at 490 nm, is proportional to the number of viable cells in culture.\n“The relative cell viability”: after the detection of the value of absorbance by above MTS assay, the relative cell viability is calculated based on the value of absorbance (A). […]\n(2) In order to detect the effect of clofoctol on cell viability of glioma stem cells, the experiment was carried out using a 96-well cell culture plate which is coated with 100 μg/mL poly-lysine overnight, wherein the plate was washed twice next day with saline, and allowed to dry until use. The cells were digested, resuspended as a single cell suspension, counted and seeded on a 96-well cell culture plate (U87MG SLC (5000 cells/well), U251 SLC (10000 cells/well), GSC2 (10000 cells/well), GSC5 (10000 cells/well)), allowed to grow overnight. […]"}, "[2]": {"system": "glioma stem cells (GSC2-GFP, U87MG SLC-GFP) co-cultured with normal human astrocytes (HA)", "assay": "Flow cytometry of co-culture model (GSC2-GFP or U87MG SLC-GFP + HA-RFP)", "assay_type": "cell-based", "details": "24 hours, 1-30 μM; compared with normal human astrocytes", "description": "6-well and 96-well cell culture plates were pre-coated with 100 μg/mL poly-lysine at 37° C. overnight, followed by washing twice with saline and allowing to air-dry. GSC2-GFP cells stably expressing green fluorescence and HA cells stably expressing red fluorescence were digested into single cell, and resuspended in fresh culture medium, counted and diluted to 5×10^4 cells/mL. Then, the two types of cells were mixed well at a ratio of 1:1, divided into five tubes. Clofoctol were added in each tube and mixed well, so that the concentrations of clofoctol were 0 μM, 1 μM, 3 μM, 10 μM, 30 μM, respectively. The resulting mixtures were added to a 6-well cell culture plate (2 mL) and a 96-well cell culture plate (100 μL, 3 replicate wells per group) respectively for 24 hours, before the MTS assay was used to detect the cell activity of each treatment group in the 96-well cell culture plate. The cells in the 6-well cell culture plates were collected separately, washed twice with PBS, and resuspended with 100 μL respectively. The proportion of GSC2-GFP and HA-RFP in the viable cells of each treatment group was analyzed by flow cytometry. Considering the changes in cell activity after medicament treatment of the co-culture model, the relative cell viability of each cell component in the co-culture model was statistically analyzed. […]"}, "GSC2 tumorspheres": {"system": "GSC2 tumorspheres", "assay": "Experiment of tumorsphere formation", "assay_type": "cell-based, human", "description": "After coating the 96-well cell culture dish, 100 μL single cell suspension containing 5000 GSC2 was added to each well. After 4 days of natural growth, the original medium was removed, and 100 μL fresh culture containing various concentrations of clofoctol was added to each well. The medicament concentrations were 0.03 μM, 0.1 μM, 0.3 μM, 1 μM, 3 μM, 10 μM and 30 μM, respectively. After 48 hours of medicament treatment, the morphological changes of the tumorspheres in each treatment group were observed under the microscope, and the number of tumorspheres in each treatment group was also counted."}, "GSC5": {"system": "GSC5", "assay": "Limited dilution experiment (self-renewal)", "assay_type": "cell-based, human", "details": "GSC5, 1 μM, 3 μM and 10 μM, 2 weeks", "description": "(1) The cells of GSC5 tumorspheres in suspension culture were collected into a 15 mL centrifuge tube, 0.5 mL of ACCUTASE enzyme (purchased from sigma) was added, and the cells were digested at 37° C. for 5 minutes. Then the cells were pipetted to single cell and the supernatant was removed after centrifugation;\n(2) Fresh Neurobasal culture medium (purchased from gibco) was added. A portion of the cells were taken for trypan blue staining, followed by cell counting.\n(3) After calculating the desired volume of cell culture medium, the cell concentration gradient of 200, 100, 50, 25 cells/well was set, and 10 replicate wells for each concentration were set. The DMSO control group and medicament treatment group with 0 μM, 1 μM, 3 μM and 10 μM of clofoctol were set.\n(4) The cells were seeded in a 96-well plate at 100 and cultured in an incubator at 37° C., 5% CO2, 2 weeks later the proportion of the well without tumorsphere was counted;"}, "[3]": {"system": "glioma stem cells (GSC5; FIG. 6 legend: GSC2)", "assay": "Recovery assay (MTS after removal of medicament)", "assay_type": "cell-based, human", "details": "24 or 48 hours treatment, then 48 hours in fresh medium", "description": "(1) The 96-well cell culture plate was coated with 100 μg/mL poly-lysine.\n(2) GSC5 was digested into single cell using ACCUTASE enzyme, resuspended in fresh Neurobasal culture medium, and the cells were then plated on the pre-coated 96-well cell culture plates overnight;\n(3) clofoctol was added, the concentration of which were 0.03 μM, 0.1 μM, 0.3 μM, 1 μM, 3 μM, 10 μM and 30 μM, 9 replicate wells for each concentration;\n(4) after 24 hours of treatment, 20 μL MTS/PMS mixed reagent was added to 3 replicate wells of each concentration to measure the cell activity. The medicament-containing medium in the other 6 replicate wells was removed, fresh medium was added to 3 of the 6 replicate wells, and medium containing the same concentration of clofoctol was added to the rest 3 replicate wells;\n(5) after 48 hours of incubation, cell activity was detected by MTS assay.\nAfter 48 hours of medicament treatment, the cells were restored for 48 hours and then detected, the steps are as above."}, "GSC2 [4]": {"system": "GSC2", "assay": "In situ tumorigenesis in nude mice of pretreated GSC2", "assay_type": "in vivo, Balb/C nude mice", "description": "The cells were collected after 24 hours of pre-treatment with clofoctol at a concentration of 30 μM, washed twice with PBS, and a portion of the cells were subjected to trypan blue staining and cell counting. The cells were injected in situ into the intracranial striatum of Balb/C nude mice aged 5-7 weeks, at 10^5 cells/mouse, 5 mice each group, and a DMSO control group was set."}, "U87MG SLC-GFP xenograft": {"system": "U87MG SLC-GFP xenograft", "assay": "Administration to zebrafish glioma xenograft model", "assay_type": "in vivo", "details": "10 μM in hatching solution, 48 hours", "description": "3000 green-fluorescent-labeled U87MG SLC-GFP were injected into the yolk sac of the 48-hour zebrafish embryo. After 48 hours of natural growth, fluorescence microscopy was used to detect the tumorigenesis in zebrafish. And then clofoctol at a concentration of 10 μM was added to the zebrafish hatching solution. After 48 hours of medicament treatment, the green fluorescence intensity of zebrafish yolk sac was detected by fluorescence microscopy to determine the in vivo inhibitory effect of clofoctol on tumors in zebrafish xenograft models."}, "GSC2 subcutaneous tumors": {"system": "GSC2 subcutaneous tumors", "assay": "Subcutaneous GSC2 xenograft at armpits of nude mice", "assay_type": "in vivo, Balb/C nude mice", "details": "20 mg/kg, intraperitoneal injection, 11 days", "description": "Subcutaneous tumorigenesis at armpits of nude mice: after centrifugation and digestion, GSC2 single cell re-suspended in PBS was subcutaneously inoculated into the armpits of 15 Balb/C nude mice of 5 weeks old. The inoculation number of the cells was 10^5 cells/mouse. The tumor size of nude mice was recorded (tumor size in nude mice=length*width^2/2). When the subcutaneous tumors in nude mice reached about 100 mm^3, they were divided into DMSO group and clofoctol administration group. The dose administered was 20 mg/kg, the mice were administered by intraperitoneal injection for a period of 11 days. The changes in tumor size and the body weight in two groups of nude mice were recorded."}, "GSC2 [5]": {"system": "GSC2", "assay": "Annexin V/PI counterstaining for the detection of apoptosis", "assay_type": "cell-based, human", "details": "GSC2, 1-30 μM, 12 hours or 24 hours", "description": "(1) GSC2 were treated with clofoctol at the concentrations of 1 μM, 3 μM, 10 μM, 30 μM for 12 hours or 24 hours;\n(2) the cells were collected and washed twice with PBS;\n(3) the cells were resuspended with 50 μL 1*binding buffer with the cell density of about 1*10^6 cells/mL;\n(4) 2.5 μL FITC Annexin V and 2.5 μL PI were added;\n(5) incubating for 15 min at room temperature in the darkness;\n(6) 200 μL of 1*binding buffer was added to the system, and the cells in each treatment tube was passed through the cell strainer;\n(7) flow cytometry analysis;\nThe Annexin V/PI counterstaining kit used was purchased from BD pharmingen with the product lot number 556547."}}}
{"smiles": "CC(C)(C)CC(C)(C)c1ccc(O)c(Cc2ccc(Cl)cc2Cl)c1", "note": "[clofoctol, 2-[(2,4-dichlorophenyl)methyl]-4-(2,4,4-trimethylpentan-2-yl)phenol]", "values": [{"measurement": "cell activity of glioma stem cells (MTS, FIG. 1)", "setting": "[1]; 48 hours, 0.3-30 μM, compared with glioma cells and normal human cell lines", "result": "specifically inhibits the cell activity of glioma stem cells"}, {"measurement": "IC50", "setting": "[1]; Homo sapiens, four glioma stem cell strains (U87MG SLC, U251 SLC, GSC2, GSC5), after 48 hours treatment", "result": "7.65 to 10.5", "unit": "µM"}, {"measurement": "relative cell viability of each cell component in the co-culture model", "setting": "[2]", "result": "specifically inhibits the cell activity of glioma stem cells in the co-culture model"}, {"measurement": "morphology of tumorspheres at low concentrations", "setting": "GSC2 tumorspheres; GSC2, 0.03 μM, 0.1 μM, 48 hours", "result": "grow protuberances and exhibit clear differentiation-like characteristics"}, {"measurement": "morphology of tumorspheres at high concentrations", "setting": "GSC2 tumorspheres; GSC2, 10 μM, 30 μM, 48 hours", "result": "caused the death of marginal cells of tumorspheres"}, {"measurement": "size and number of tumorspheres", "setting": "GSC2 tumorspheres; GSC2, 48 hours, 0.03-30 μM", "result": "significantly reduce the size and number of tumorspheres"}, {"measurement": "formation of glioma stem cell clones (self-renewal ability)", "setting": "GSC5", "result": "significantly inhibits the formation of glioma stem cell clones"}, {"measurement": "reversibility of the effect on glioma stem cells after removal of medicament", "setting": "[3]", "result": "irreversible to some extent"}, {"measurement": "in situ tumorigenesis (mice with tumor / mice injected)", "setting": "GSC2 [4]; GSC2 pretreated 24 hours at 30 μM, 1 * 10^5 cells/mouse, intracranial striatum", "result": "0/5"}, {"measurement": "ability of in situ tumorigenesis in nude mice", "setting": "GSC2 [4]; pretreatment of GSC2 at 30 μM for 24 hours", "result": "significantly inhibits its ability of in situ tumorigenesis in nude mice"}, {"measurement": "in vivo tumor growth (green fluorescence intensity of yolk sac)", "setting": "U87MG SLC-GFP xenograft", "result": "significantly inhibits the in vivo tumor growth"}, {"measurement": "side effects (body weight)", "setting": "GSC2 subcutaneous tumors", "result": "side effects were small"}, {"measurement": "tumor growth (tumor size)", "setting": "GSC2 subcutaneous tumors", "result": "significantly inhibits tumor growth"}, {"measurement": "apoptosis in glioma stem cells", "setting": "GSC2 [5]", "result": "can induce apoptosis in glioma stem cells"}]}
